Test results from BindingDB's records for doi:10.1021/acs.jmedchem.8b00408 (Duquesne University, 2018).

What was measured:
[1] = Binding affinity to human RFC2 expressed in human HeLa R1-11 cells assessed as antiproliferative activity measured as reduction in cell growth after 96 hrs by Cell-Titer Blue assay
[2] = Binding affinity to human PCFT4 expressed in human HeLa R1-11 cells assessed as antiproliferative activity measured as reduction in cell growth after 96 hrs by Cell-Titer Blue assay
[3] = Binding affinity to human RFC expressed in Chinese hamster PC43-10 cells assessed as antiproliferative activity measured as reduction in cell growth after 96 hrs by Cell-Titer Blue assay
[4] = Binding affinity to human PCFT expressed in Chinese hamster R2/PCFT4 cells assessed as antiproliferative activity measured as reduction in cell growth after 96 hrs by Cell-Titer Blue assay
[5] = Binding affinity to human FRbeta expressed in Chinese hamster D4 cells assessed as antiproliferative activity measured as reduction in cell growth after 96 hrs by Cell-Titer Blue assay
[6] = molecular target: Folate receptor alpha (Homo sapiens) (UniProt P15328); assay: Binding affinity to human FRalpha expressed in human HeLa R1-11-FR2 cells assessed as antiproliferative activity measured as reduction in cell growth after 96 hrs by Cell-Titer Blue assay
Folate receptor alpha (Homo sapiens), sequence (P15328 whole entry, looked up): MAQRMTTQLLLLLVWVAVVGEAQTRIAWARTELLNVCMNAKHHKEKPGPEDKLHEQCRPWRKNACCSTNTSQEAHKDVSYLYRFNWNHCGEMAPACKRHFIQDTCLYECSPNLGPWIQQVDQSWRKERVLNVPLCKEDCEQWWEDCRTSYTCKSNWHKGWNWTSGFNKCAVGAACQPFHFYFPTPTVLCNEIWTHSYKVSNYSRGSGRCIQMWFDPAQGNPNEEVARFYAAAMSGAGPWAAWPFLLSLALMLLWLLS

[7] = Binding affinity to human FRalpha expressed in Chinese hamster RT16 cells assessed as antiproliferative activity measured as reduction in cell growth after 96 hrs by Cell-Titer Blue assay

With `Nc1nc2[nH]c(CCCc3csc(C(=O)N[C@@H](CCC(=O)O)C(=O)O)c3)cc2c(=O)[nH]1` the IC50 [1] was 0.063 µM and the IC50 [2] was 0.04 µM.

With `Nc1nc2[nH]c(CCCc3ccc(C(=O)N[C@@H](CCC(=O)O)C(=O)O)s3)cc2c(=O)[nH]1` the IC50 [3] was 0.106 µM and the IC50 [1] was 0.444 µM.

For `Nc1nc2[nH]c(CCCCc3csc(C(=O)N[C@@H](CCC(=O)O)C(=O)O)c3)cc2c(=O)[nH]1`, the IC50 [3] was greater than 1 µM, the IC50 [1] was greater than 1 µM and the IC50 [2] was 0.073 µM.

In the case of `Nc1nc2[nH]c(CCCCc3ccc(C(=O)N[C@@H](CCC(=O)O)C(=O)O)nc3)cc2c(=O)[nH]1`, the IC50 [3] is reported as greater than 1 µM, the IC50 [1] is reported as 0.634 µM and the IC50 [2] is reported as 0.009 µM.

Compound `Nc1nc2[nH]c(CCCc3ccc(C(=O)N[C@@H](CCC(=O)O)C(=O)O)c(F)c3)cc2c(=O)[nH]1` has an IC50 [3] of 0.062 µM, an IC50 [1] of 0.507 µM and an IC50 [4] of 0.0038 µM. It also gave an IC50 [5] of 0.0039 µM, an IC50 [2] of 0.0055 µM and an IC50 [6] of 0.0052 µM.

With `Nc1nc2[nH]c(CCCCc3csc(C(=O)N[C@@H](CCC(=O)O)C(=O)O)c3F)cc2c(=O)[nH]1` the IC50 [3] was greater than 1 µM, the IC50 [1] was 0.213 µM and the IC50 [4] was 0.006 µM. For the same compound, the IC50 [2] was 0.005 µM.

With `Nc1nc2[nH]c(CCCc3csc(C(=O)N[C@@H](CCC(=O)O)C(=O)O)c3F)cc2c(=O)[nH]1` the IC50 [1] was 0.066 µM, the IC50 [7] was 0.00014 µM and the IC50 [4] was 0.0015 µM. It also gave an IC50 [5] of 0.00019 µM and an IC50 [6] of 0.0031 µM.

With `Nc1nc2[nH]c(CCCCc3ccc(C(=O)N[C@@H](CCC(=O)O)C(=O)O)cc3F)cc2c(=O)[nH]1` the IC50 [7] was 0.0014 µM, the IC50 [4] was 0.207 µM and the IC50 [5] was 0.00093 µM.

Compound `Nc1nc2[nH]c(CCCc3ccc(C(=O)N[C@@H](CCC(=O)O)C(=O)O)cc3)cc2c(=O)[nH]1` [(S)-2-(4-(3-(2-amino-4-oxo-4,7-dihydro-3H-pyrrolo[2,3-d]pyrimidin-6-yl)propyl)benzamido)pentanedioic acid] has an IC50 [3] of 0.304 µM, an IC50 [1] greater than 1 µM and an IC50 [2] of 0.0097 µM.

`Nc1nc2[nH]c(CCCCc3ccc(C(=O)N[C@@H](CCC(=O)O)C(=O)O)cc3)cc2c(=O)[nH]1` [N-{4-[4-(2-Amino-4-oxo-4,7-dihydro-3H-pyrrolo[2,3-d]pyrimidin-6-yl)butyl]benzoyl}-L-glutamic Acid] gave an IC50 [3] greater than 1 µM and an IC50 [1] greater than 1 µM.
